Here are results for one molecule from patent US20080176261A1, “Colorimetric Substrate and Methods for Detecting Poly(ADP-ribose) Polymerase Activity including PARP Enzymes PARP-1, VPARP, and Tankyrase-1” (THE BOARD OF TRUSTEES OF THE UNIVERSITY OF ILLINOIS, priority 2007, published 2008).

The target of one assay is T1, tankyrase-1 (Homo sapiens, UniProt O95271).
T1 construct: The SAM and PARP domain of tankyrase was subcloned into pGEX-5X-1; made in house; host or cells: E. coli Rosetta
T1 sequence (O95271 1030-1327): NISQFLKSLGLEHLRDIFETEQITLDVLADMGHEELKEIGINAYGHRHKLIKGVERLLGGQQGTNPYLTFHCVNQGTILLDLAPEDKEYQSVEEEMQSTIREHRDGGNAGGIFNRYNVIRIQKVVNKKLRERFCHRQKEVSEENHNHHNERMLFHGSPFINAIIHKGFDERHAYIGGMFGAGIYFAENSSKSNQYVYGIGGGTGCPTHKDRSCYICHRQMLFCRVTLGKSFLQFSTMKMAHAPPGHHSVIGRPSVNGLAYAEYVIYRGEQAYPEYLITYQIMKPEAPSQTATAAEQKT
Put plainly: IC50 determination of PARP inhibitor with ADP-ribose-pNP substrate, tankyrase-1. Type of assay: biochemical. The settings on record: 250 μM ADP-ribose-pNP. On the procedure: (§1) For these measurements, concentrations of DPQ ranging from 0.05 nM to 10 μM were added to a 96-well plate containing PARP assay buffer and ADP-ribose-pNP and the absorbance at 405 nm was measured in triplicate.
(§2) Determination of IC50 values for PARP inhibitors. To determine IC50 values of the PARP inhibitors, 22.5 μL of PARP assay buffer containing varying concentrations of DPQ and 20 μg/mL DNase activated DNA (for PARP-1 only) were added into the wells of a 384-well plate. A 22.5 μL volume of PARP at a concentration of 5 μg/mL PARP-1, 40 μg/mL VPARP and 40 μg/mL tankyrase-1 in PARP assay buffer was added. The reaction was initiated by the addition of 5 μL of a 2.5 mM solution of ADP-ribose-pNP in PARP assay buffer, bringing the final concentration to 2.5 μg/mL PARP-1 with 10 μg/mL DNA or 20 μg/mL VPARP or 20 μg/mL tankyrase-1, 250 μM ADP-ribose-pNP with varying concentrations of inhibitors in a total volume of 50 μL. The plate was then read every 2 minutes for 2 hours at 405 nm on a SpectraMax 384 plate reader (Molecular Devices). […]
(§3) Data analysis. Data from the plate reader was imported into Excel where appropriate subtractions were made and the data was plotted. Graphs were analyzed using Table Curve 2D. […]

A further assay has as its target T2, VPARP (Homo sapiens, UniProt Q9UKK3).
T2 construct: The plasmid with the catalytic domain of VPARP, pET28b-p193cat; made in house; host or cells: E. coli Rosetta
T2 sequence (Q9UKK3 369-573 limits assumed): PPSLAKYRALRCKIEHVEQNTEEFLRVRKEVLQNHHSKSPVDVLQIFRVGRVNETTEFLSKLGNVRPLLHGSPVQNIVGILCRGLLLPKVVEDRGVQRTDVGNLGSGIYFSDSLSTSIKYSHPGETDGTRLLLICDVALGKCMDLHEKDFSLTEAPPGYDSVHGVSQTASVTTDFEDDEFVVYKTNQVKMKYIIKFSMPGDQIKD
The assay can be described thus: IC50 determination of PARP inhibitor with ADP-ribose-pNP substrate, VPARP. Type of assay: biochemical. The conditions noted are these: 250 μM ADP-ribose-pNP. On the procedure: as §1, §2, §3

The target of another assay is PARP-1 (Homo sapiens, UniProt P09874). Put plainly: biochemical. On the procedure:
as §1, §2, §3

Chain of PARP-1 (P09874 whole entry): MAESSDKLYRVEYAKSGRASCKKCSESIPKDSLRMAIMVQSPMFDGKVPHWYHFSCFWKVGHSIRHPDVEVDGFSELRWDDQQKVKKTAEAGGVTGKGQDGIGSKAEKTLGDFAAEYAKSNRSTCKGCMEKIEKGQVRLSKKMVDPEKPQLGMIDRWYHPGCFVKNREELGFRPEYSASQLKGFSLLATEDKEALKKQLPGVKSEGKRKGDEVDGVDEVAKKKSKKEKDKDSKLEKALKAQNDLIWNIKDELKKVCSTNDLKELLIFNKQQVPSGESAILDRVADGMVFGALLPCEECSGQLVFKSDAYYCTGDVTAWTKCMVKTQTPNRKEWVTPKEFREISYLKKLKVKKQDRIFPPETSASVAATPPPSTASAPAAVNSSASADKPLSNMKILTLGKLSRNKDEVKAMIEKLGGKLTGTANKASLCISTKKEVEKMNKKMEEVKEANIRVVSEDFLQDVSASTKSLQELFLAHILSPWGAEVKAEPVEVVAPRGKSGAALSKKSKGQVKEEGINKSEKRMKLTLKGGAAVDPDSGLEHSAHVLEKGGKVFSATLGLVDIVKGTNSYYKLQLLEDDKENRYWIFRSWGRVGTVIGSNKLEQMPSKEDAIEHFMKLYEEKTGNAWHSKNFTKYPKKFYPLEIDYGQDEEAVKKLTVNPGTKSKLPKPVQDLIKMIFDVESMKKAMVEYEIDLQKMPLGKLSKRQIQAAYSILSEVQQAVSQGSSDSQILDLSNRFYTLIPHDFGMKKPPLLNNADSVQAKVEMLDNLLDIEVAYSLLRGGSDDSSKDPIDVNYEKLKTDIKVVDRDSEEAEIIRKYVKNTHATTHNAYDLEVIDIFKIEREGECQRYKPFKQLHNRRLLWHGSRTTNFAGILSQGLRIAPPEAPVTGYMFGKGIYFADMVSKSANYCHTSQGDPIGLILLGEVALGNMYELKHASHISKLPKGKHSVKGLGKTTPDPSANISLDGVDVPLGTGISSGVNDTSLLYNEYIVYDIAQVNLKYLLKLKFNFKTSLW

For orientation: IC50 means the concentration that inhibits the measured activity by half. The low end stands for inhibition by little substance, the high end for a need for much substance. For the molecule `O=C1NCCc2c(OCCCCN3CCCCC3)cccc21` [DPQ, 3,4-Dihydro-5-[4-(1-piperidinyl)butoxyl]-1 (2H)-isoquinolinone], the IC50 against tankyrase-1 is 33 nM; against VPARP it was 281 nM; on PARP-1, 23 nM.
